{"source": "patent US20240108585A1", "about": "“COMPOSITIONS COMPRISING LIPID-BASED NANOPARTICLES FOR TREATING DIABETES MELLITUS” (SDG, Inc., priority 2018, published 2024)", "key": {"[1]": {"system": "type 1 diabetes mellitus (T1DM)", "assay": "ISLE-1: 26-week Phase 2b multicenter randomized double-blind non-inferiority trial, HDV-L vs LIS, multiple daily injections", "excerpt": "ISLE-1 was a 26-week, Phase 2b, multicenter, randomized, double-blind, non-inferiority trial.\nISLE-1 was a 26-week, Phase 2b, multicenter, randomized, double-blind, trial in T1DM treated with multiple daily injections (MDI) of insulin.\nMain inclusion criteria were: age ≥18 years; T1D for ≥12 months; A1c ≥7.0 ([…]) to ≤10.5% (≤91 mmol/mol); treated with insulins glargine or detemir for basal coverage. Main exclusion criteria were total insulin dose ≥1.5 IU/kg/day or NPH insulin as basal.\nPrandial dosing of HDV-lispro or control lispro was 15 minutes prior to the meal, and basal insulins were administered either as a single daily dose or a divided twice per day dosing, every 12 hours.\nInformed of −10% dilution, participants continued their current insulin parameters. Hypoglycemia was recorded on Case Report Forms (CRFs) based on subject diaries and SMBG records, subjectively investigator-judged as “mild,” “moderate,” “severe,” or “life threatening.” Blinded continuous glucose monitoring (CGM) (Dexcom G4) was used for 5-7 days to assess glucose at baseline, weeks 13 and 26. A1c, lipids, and liver enzymes were measured approximately monthly. Liver fat content MRIs were performed in a subset.\nThe intent to treat (ITT) population included all randomized subjects receiving at least one dose of study treatment. Safety analyses included all randomized subjects. […] Mean A1c change was analyzed using ANCOVA within intent-to-treat (ITT) cohort at each visit. Post hoc subgroup analyses (baseline A1c <8.5% vs ≥8.5%) were performed, this cut point corresponding to pre-specified randomization strata. Direct likelihood models were used for treatment arm A1c comparisons, % time <54 mg/dL, bolus insulin, and basal insulin within the two A1c subgroups. Poisson regression models adjusting for site as random effect compared “severe” hypoglycemia incidence rates within A1c groups, testing for baseline A1c by treatment group interaction. Event number/subject was truncated at 15, accounting for extreme outliers."}, "[2]": {"system": "adult Type 1 diabetes mellitus", "assay": "Example 2 pump study: randomized double-blinded two-way crossover, HDV lispro vs lispro by insulin pump, CGM and mixed meal test", "assay_type": "in vivo, human", "conditions": "baseline HbA1c 7.19; 3-week pump period; 7 subjects", "excerpt": "A study was run comparing the efficacy of HDV lispro vs. lispro to treat adult Type 1 diabetes mellitus when administered by pump. The study involved 7 subjects and was a randomized, double-blinded two-way crossover study. The dosing duration was 3-week on standard insulin x 3-week on HDV-insulin with infusion via standard commercial insulin pumps, and a mixed meal test was employed; continuous glucose monitoring was achieved via blinded Dexcom G4 Platinum Continuous Glucose Monitor. The baseline HbA1c was 7.19, and the ending HbA1c was 7.21 (for the HDV group) and 7.08 (for the lispro group)."}, "[3]": {"system": "adult Type 1 diabetes mellitus", "assay": "Example 3: double-blinded randomized six-week parallel study, HDV lispro vs lispro, multiple daily injections, CGM", "assay_type": "in vivo, human", "excerpt": "A double-blinded, randomized study was run comparing the efficacy of HDV lispro vs. lispro to treat adult Type 1 diabetes mellitus. The study involved 43 (1:1) subjects (who were considered to be in good control, with HbA1c levels between 7-8%) and was a six-week parallel design study, with multiple daily injections. The baseline HbA1c was 7.35 (HDV group) and 7.39 (lispro group). The primary endpoint was a two-hour reduction in glucose time out of range."}}, "data": [{"substance": "insulin lispro", "values": [{"measurement": "treatment-related serious adverse events", "setting": "[1]; 26 weeks", "result": "No treatment-related serious adverse events were reported"}, {"measurement": "Mean change in A1c baseline to Week 26", "setting": "[1]; all subjects, HDV-L n=118, LIS n=58", "result": "−0.16", "unit": "%"}, {"measurement": "change in A1c over time", "setting": "[1]; baseline A1c <8.5%", "result": "little change"}, {"measurement": "time <54 mg/dL during Week 26 (median)", "setting": "[1]; baseline A1c <8.5%, CGM, p=0.16", "result": 0.6, "unit": "%"}, {"measurement": "CRF-reported incidence of \"severe\" hypoglycemia", "setting": "[1]; baseline A1c <8.5%, p=0.001, unit not given", "result": 21}, {"measurement": "percentage time <54 mg/dL during Week 26 (median)", "setting": "[1]; baseline A1c >8.5%, CGM, p=0.09", "result": 2.6, "unit": "%"}, {"measurement": "change in total cholesterol", "setting": "[1]; over the study", "result": 7.3, "unit": "mg/dL"}, {"measurement": "\"life threatening\" hypoglycemia events", "setting": "[1]; whole study", "result": "No “life threatening” events were recorded"}, {"measurement": "ending HbA1c", "setting": "[2]", "result": 7.08}, {"measurement": "Time in Range (70-180 mg/dL), increase", "setting": "[3]", "result": "*No Change in Lispro Group"}, {"measurement": "Time in Target (70-140 mg/dL), increase", "setting": "[3]", "result": "*No Change in Lispro Group"}]}]}
